Results: ChEMBL document CHEMBL3091451, “Function-regulating pharmacophores in a sulfonamide class of glucocorticoid receptor agonists” (Bioorg Med Chem Lett, 2013)

What was measured:
Glucocorticoid receptor [1] = target: T1, Glucocorticoid receptor (Homo sapiens, UniProt P04150); assay: Displacement of TAMRA-labeled dexamethasone from glucocorticoid receptor (unknown origin) by fluorescence polarization competitive binding assay
T1 sequence (P04150 whole entry): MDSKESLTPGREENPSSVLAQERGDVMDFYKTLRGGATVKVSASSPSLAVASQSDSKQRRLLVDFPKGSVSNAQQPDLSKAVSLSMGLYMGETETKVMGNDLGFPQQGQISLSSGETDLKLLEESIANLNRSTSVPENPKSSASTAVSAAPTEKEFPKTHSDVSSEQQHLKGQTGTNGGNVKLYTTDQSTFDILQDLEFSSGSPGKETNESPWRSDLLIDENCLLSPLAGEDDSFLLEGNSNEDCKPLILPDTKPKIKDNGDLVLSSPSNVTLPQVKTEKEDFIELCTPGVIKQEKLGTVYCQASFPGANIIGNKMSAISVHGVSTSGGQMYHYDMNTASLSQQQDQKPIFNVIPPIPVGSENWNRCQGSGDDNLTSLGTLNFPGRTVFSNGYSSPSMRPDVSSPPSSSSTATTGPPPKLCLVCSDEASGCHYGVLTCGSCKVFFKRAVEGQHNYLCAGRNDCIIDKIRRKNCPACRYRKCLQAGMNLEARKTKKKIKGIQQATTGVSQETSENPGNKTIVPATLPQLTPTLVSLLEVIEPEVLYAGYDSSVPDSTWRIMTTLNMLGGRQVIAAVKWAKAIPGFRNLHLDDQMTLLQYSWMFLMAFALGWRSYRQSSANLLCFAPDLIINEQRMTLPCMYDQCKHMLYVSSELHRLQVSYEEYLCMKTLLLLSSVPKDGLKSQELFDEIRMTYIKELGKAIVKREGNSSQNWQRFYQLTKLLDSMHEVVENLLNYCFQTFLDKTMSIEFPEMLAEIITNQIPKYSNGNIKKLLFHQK

[2] = target: T2, Mineralocorticoid receptor (Homo sapiens, UniProt P08235); assay: Binding affinity to mineralocorticoid receptor (unknown origin) by fluorescence polarization competitive binding assay
T2 sequence (P08235 whole entry): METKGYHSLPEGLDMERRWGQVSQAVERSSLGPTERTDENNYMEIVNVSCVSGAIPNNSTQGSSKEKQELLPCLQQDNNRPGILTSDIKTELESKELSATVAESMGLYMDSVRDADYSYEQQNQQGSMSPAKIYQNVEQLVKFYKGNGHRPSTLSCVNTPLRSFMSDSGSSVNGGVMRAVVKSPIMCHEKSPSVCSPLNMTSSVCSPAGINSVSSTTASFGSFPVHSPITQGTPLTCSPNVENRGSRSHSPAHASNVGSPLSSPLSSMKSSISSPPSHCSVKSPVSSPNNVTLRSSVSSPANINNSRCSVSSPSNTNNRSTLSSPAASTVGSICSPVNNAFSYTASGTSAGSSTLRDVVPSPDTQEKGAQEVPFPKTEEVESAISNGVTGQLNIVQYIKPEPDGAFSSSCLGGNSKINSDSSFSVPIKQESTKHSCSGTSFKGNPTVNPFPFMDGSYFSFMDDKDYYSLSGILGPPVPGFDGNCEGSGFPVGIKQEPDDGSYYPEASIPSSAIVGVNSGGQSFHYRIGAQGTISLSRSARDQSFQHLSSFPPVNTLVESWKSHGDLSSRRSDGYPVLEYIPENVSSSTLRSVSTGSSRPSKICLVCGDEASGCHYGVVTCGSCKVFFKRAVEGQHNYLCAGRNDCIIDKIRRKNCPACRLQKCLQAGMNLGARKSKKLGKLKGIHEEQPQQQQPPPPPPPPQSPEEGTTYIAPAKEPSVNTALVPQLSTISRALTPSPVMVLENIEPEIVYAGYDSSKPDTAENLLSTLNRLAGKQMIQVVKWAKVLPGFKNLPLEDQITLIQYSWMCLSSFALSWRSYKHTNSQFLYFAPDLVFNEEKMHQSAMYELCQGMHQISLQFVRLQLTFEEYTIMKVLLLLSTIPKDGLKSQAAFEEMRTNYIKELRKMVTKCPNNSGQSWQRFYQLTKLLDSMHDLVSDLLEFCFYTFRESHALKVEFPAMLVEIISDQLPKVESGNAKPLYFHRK

Progesterone receptor = target: T3, Progesterone receptor (Homo sapiens, UniProt P06401); assay: Displacement of TAMRA-labeled mifepristone from progesterone receptor (unknown origin) by fluorescence polarization competitive binding assay
T3 sequence (P06401 whole entry): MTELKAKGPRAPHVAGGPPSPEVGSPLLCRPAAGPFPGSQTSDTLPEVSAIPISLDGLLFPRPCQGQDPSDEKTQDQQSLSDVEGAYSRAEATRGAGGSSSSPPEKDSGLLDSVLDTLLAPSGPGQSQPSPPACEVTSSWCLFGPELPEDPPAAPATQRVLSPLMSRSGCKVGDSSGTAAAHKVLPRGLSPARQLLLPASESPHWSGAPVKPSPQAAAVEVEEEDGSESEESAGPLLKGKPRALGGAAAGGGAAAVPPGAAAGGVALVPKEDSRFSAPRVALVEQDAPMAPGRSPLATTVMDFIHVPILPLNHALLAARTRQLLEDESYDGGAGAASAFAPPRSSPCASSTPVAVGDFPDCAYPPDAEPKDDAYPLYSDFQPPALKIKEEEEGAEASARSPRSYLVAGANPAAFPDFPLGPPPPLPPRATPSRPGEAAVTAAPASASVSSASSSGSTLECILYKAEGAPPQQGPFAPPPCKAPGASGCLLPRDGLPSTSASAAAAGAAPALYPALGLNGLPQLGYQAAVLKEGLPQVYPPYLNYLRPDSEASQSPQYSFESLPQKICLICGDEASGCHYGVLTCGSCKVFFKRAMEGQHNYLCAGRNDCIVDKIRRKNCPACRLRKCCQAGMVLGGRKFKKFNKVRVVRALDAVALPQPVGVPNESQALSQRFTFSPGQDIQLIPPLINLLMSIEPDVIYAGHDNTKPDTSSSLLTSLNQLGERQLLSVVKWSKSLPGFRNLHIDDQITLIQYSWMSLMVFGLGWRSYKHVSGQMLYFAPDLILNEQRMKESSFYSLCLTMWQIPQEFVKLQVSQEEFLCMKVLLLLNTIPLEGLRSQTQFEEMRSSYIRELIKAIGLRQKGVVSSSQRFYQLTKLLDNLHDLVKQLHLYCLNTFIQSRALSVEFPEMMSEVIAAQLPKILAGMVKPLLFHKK

Glucocorticoid receptor [3] = target: T1, Glucocorticoid receptor; assay: Agonist activity at glucocorticoid receptor in HFF assessed as inhibition of IL-1-induced IL-6 production after 24 hrs
Homo sapiens = species: Homo sapiens; assay: Selectivity ratio of IC50 for mineralocorticoid receptor (unknown origin) to IC50 for glucocorticoid receptor (unknown origin)
[4] = Half life in human liver microsomes; type: ADME
Cytochrome P450 3A4 = Cytochrome P450 3A4 (Homo sapiens, UniProt P08684); assay: Inhibition of CYP3A4 (unknown origin) using 7-benzyloxy-4-trifluoromethylcoumarin as substrate; type: ADME
Chain of Cytochrome P450 3A4 (P08684 whole entry): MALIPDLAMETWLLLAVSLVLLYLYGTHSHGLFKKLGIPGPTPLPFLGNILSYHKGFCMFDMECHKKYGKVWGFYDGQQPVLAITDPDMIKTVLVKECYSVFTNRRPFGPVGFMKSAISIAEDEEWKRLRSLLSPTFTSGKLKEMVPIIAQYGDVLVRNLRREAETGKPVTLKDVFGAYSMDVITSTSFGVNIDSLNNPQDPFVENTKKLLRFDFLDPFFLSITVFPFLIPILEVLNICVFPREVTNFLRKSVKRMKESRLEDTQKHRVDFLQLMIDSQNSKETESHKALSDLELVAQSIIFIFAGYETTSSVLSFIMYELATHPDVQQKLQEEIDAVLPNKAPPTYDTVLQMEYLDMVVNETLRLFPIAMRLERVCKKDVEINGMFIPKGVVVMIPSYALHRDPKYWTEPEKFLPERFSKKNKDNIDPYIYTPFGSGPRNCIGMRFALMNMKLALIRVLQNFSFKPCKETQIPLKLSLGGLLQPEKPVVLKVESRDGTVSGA

Row | Structure (SMILES) | IC50 (Glucocorticoid receptor [1]) [µM] | IC50 [2] [µM] | IC50 (Progesterone receptor) [µM] | IC50 (Glucocorticoid receptor [3]) [µM] | Ratio IC50 (Homo sapiens) | half-life [4] [min] | IC50 (Cytochrome P450 3A4) [µM]
1 | O=S(=O)(NC(Cc1c[nH]c2ccccc12)C(F)(F)F)c1c(Cl)cc(Cl)cc1Cl (stereo not given) | 0.035 | 0.08 | 3.5 | > 2 |  |  | 
2 | CC(C)(Cc1c[nH]c2ccccc12)NS(=O)(=O)c1c(N)cc(Cl)cc1Cl | 0.015 | 0.47 | 5.3 | > 2 |  |  | 
3 | Cc1cc(C)c(S(=O)(=O)NC(Cn2cc(C#N)c3ccccc32)C(F)(F)F)c(C)c1 (stereo not given) | 0.015 | 0.065 | 0.53 | > 2 |  |  | 
4 | Cc1cc(C)c(S(=O)(=O)NC(Cc2c[nH]c3cc(C)ccc23)C(F)(F)F)c(C)c1 (stereo not given) | 0.037 | 0.14 | > 2 | > 2 | 1 |  | 
5 | Cc1cc(C)c(S(=O)(=O)NC(Cc2c[nH]c3ccc(C#N)cc23)C(F)(F)F)c(C)c1 (stereo not given) | 0.32 | 0.21 | > 10 | > 10 | 1 |  | 
6 | Cc1cc(C)c(S(=O)(=O)NC(Cn2ccc3c(C#N)cccc32)C(F)(F)F)c(C)c1 (stereo not given) | 0.06 | 0.1 | 0.7 | > 10 |  |  | 
7 | Nc1cc(Cl)cc(Cl)c1S(=O)(=O)NC(Cc1c[nH]c2ccccc12)C(F)(F)F (stereo not given) | 0.01 | 0.27 | > 2 | 0.056 |  |  | 
8 | CC[C@@H](Cn1ccc2ccccc21)NS(=O)(=O)c1c(N)cc(Cl)cc1Cl | 0.002 | 0.51 | > 10 | > 2 |  | 3 | 0.57
9 | Cc1cc(C)c(S(=O)(=O)NC(Cc2c[nH]c3cc(C#N)ccc23)C(F)(F)F)c(C)c1 (stereo not given) | 0.28 | 0.28 | 2 | > 10 | 1 |  | 
10 | Cc1cc(C)c(S(=O)(=O)NC(COc2ccccc2)C(F)(F)F)c(C)c1 (stereo not given) | 0.21 | 0.34 | 6.4 | > 10 |  |  | 
11 | CC(Cc1c[nH]c2ccccc12)NS(=O)(=O)c1c(Cl)cc(Cl)cc1Cl (stereo not given) |  |  |  | > 2 |  |  | 
12 | CC(Cc1c[nH]c2ccccc12)NS(=O)(=O)c1c(N)cc(Cl)cc1Cl (stereo not given) | 0.005 | 0.51 | > 2 | 0.12 | 102 |  | 
13 | Cc1cc(C)c(S(=O)(=O)NC(Cn2ccc3ncccc32)C(F)(F)F)c(C)c1 (stereo not given) | 0.34 | 0.22 | > 10 | > 2 |  |  | 
